The values below come from patent publication US20160082133A1, “CHEMICAL EXCHANGE SATURATION TRANSFER (CEST) BASED MRI USING REPORTER GENES AND SUBSTRATES AND METHODS THEREOF” (The Johns Hopkins University, priority 2013, published 2016).

Data set [1] can be described thus: In vitro CEST-MRI of thymidine analogues at 11.7 T. It is filed as physicochemical. The note with it: pH 7.4, 37° C. On the procedure: All compounds were dissolved at a concentration of 20 mM in phosphate-buffered saline (PBS) (pH=7.4) and placed in microcapillaries, as described previously.^17 CESTMRI experiments were performed on a vertical 11.7 T scanner (Bruker Avance system) at 37° C. A modified RARE sequence (TR/TE=10 000/9.4 ms; RARE factor=16; 1 mm slice thickness; FOV=11×11 mm^2; matrix size=64×32; resolution=0.17×0.34 mm^2; and NA=2) including a magnetization transfer (MT) module ([…]) was used to acquire CEST-weighted images from −8 to +8 ppm with increments of 0.2 ppm around the water resonance, which was assigned to be at 0 ppm. Pixel-based B0 correction was used as described before using the same parameters as above except for TR=1500 ms and B1/tsat=21 Hz/500 ms, with a sweep range from −2 to +2 ppm (0.1 ppm steps). Data processing was performed using custom-written scripts in MATLAB (Mathworks). Mean CEST spectra were plotted from an ROI for each sample, after B0 correction. MTRasym=100×(S^−Aω−S^AωA/^‘−’0)/3 was computed at different offsets Aω.

Data set [2] concerns HSV1-TK over m-TK. In words: Kinase assay with HEK-293FT cell extracts (293^HSV1-tk vs 293^wt). It is filed as biochemical. The following applies: 5 μM substrate, 2 μL cell extract; specificity HSV1-TK over m-TK. On the procedure:
In a solid white 96-well plate, 5 μM substrate (dT, compounds 1, 2, or 3; N=4 for each substrate) and 20 μM ATP were dissolved in 48 μL of kinase reaction buffer (40 mM Tris; pH=7.5, 20 mM MgCl2, and 0.1 mg/mL BSA) followed by the addition of 2 μL of purified HSV1-TK to initiate the kinase reaction. Eight wells without substrate were included as the control reference. The plate was incubated at room temperature for 2 h, after which 50 μL of Kinase-Glo luciferase reagent (Kinase-Glo max luminescent kinase assay, Promega Inc.) was added. After […], the resulting luminescence values were recorded and used to quantify the residual ATP in the reaction. The relative phosphorylation (%) was then defined as the luminescence signal obtained after the enzymatic reaction (substrate+HSV1-TK+ATP) relative to the signal obtained from wells without substrate (HSV1-TK+ATP). For a phosphorylation assay performed on HEK-293FT lysates, 2 μL of cell extract (either ^293HSV1-tk or 293^wt cells) was used instead of purified HSV1-TK, and the assay was performed using 1 or 2 as the substrate according to the procedure described above.

The subject of data set [3] is 293^HSV1-tk cells. Nature of the data set: Cell viability assay (CellTiter-Blue). It is filed as cell-based, human. The following applies: 0.5 mg/ml, 4 and 24 hours. As for the experimental part:
Cell viability assay was performed using CellTiter-Blue® Cell Viability Assay (Promega), which provides a fluorometric method for estimating the number of viable cells present in 96 well plate. HEK293FT cells transduced with the HSV1-tk (293^HSV1-tk) were plated in 96 well-plate (10,000 cells/well). Cells were incubated for a periods of 4 hours and 24 hours in the presence of ganciclovir (GCV, 0.5 mg/ml in cell medium), compound 2 (0.5 mg/ml in cell medium) and medium (as control). CellTiter-Blue® Reagent was added (20 μl/well) and plate was incubated for 3 hours at 37° C. Finally, fluorescence 560/590 nm was recorded and values obtained from probe containing wells (GCV or 2, N=4) were normalized to values of non-treated cells (control wells) to determine the % of viable cells after the incubation period.

A short description of data set [4]: Quantification of exchange rates (QUESP, Bloch equation fitting). The following applies: 11.7 T, pH 7.4, 37° C. It is filed as physicochemical. On the procedure: Exchange rates were quantified with the saturation power dependent CEST approach (QUESP) and Bloch equation fitting (McMahon et al., Magn. Res. Med. 2006, 55, 836). For each sample, the MTRasym was measured at the imino resonance frequency for CEST saturation fields of 43, 85, 128, 170, 213, 255, 340, and 426 Hz while the saturation pulse duration was kept constant at 4000 ms. The Bloch equations were then fit numerically to these MTRasym values using MATLAB (Mathworks), and the exchange rates (kex, s^−1) were determined from the fits. Errors (95% confidence limits) were estimated using the F statistic.

For data set [5], the system named is 9L^wt and 9L^HSV1-tk tumors. Nature of the data set: Terminal transferase nick-end-labeling (TUNEL) of brain tumors. The data set is classed as in vivo, mice. The note with it: 150 mg/kg, 6 hours post i.v. injection. As for the experimental part:
ApopTag® Plus In Situ Apoptosis Fluorescein Detection Kit (Millipore) was used for detecting degraded DNA fragments to evaluate apoptosis after the administration of compound 2. Six hours after i.v. administration of 2 (150 mg/kg body weight) mice were transcardially perfused with 10 mM PBS and 4% PFA for tissue fixation. Brains were fixed in 4% PFA overnight, cryopreserved in 30% sucrose, and followed by cryo-sectioning at 30 μm slices. Slices were post-fixed in ethanol: acetic acid (2:1) solution followed by the manufacture procedure for using the ApopTag® Plus In Situ Apoptosis Fluorescein Detection Kit (Millipore, […]).

Data set [6] concerns 9L^HSV1-tk cells. Nature of the data set: In vitro detection of accumulation with MR spectroscopy. The following applies: 9L^HSV1-tk cells incubated 3.5 h. The data set is classed as cell-based, rat. On the procedure:
At least two distinctive peaks, typical to 2, appear in the spectra of the pure compound (black), a singlet at 1.22 ppm (6H of the 2 Methyls) and a triplet at 6.29 ppm (1H, the proton on 1′ carbon of the sugar). Both peaks appear in the lysate of cells incubated with the compound (red spectra) but not in the control (blue spectra). The samples were prepared using dual-phase extraction for simultaneous extraction of cellular lipids and water-soluble metabolite. Twenty five million cells (9L^HSV1-tk) were incubated with or without 2 for 3.5 h. After dual-phase extraction and lyophilizing of the water from the water-soluble fraction, the soluble intracellular contents were dissolved in D2O for the ^1H-NMR experiments. Fully relaxed ^1H-NMR spectra of the extracts were acquired on a Bruker 500 MHz scanner. The signal integrals of the typical functional groups of 2 (methyl groups —(CH3)2 at 1.22 ppm and of the CH on the C-1′ position of the sugar moiety at 6.29 ppm) and of the standard TSP (0 ppm) were determined. Then, the mM intracellular concentration of 2 was calculated as shown previously (Glunde, K. et al., Cancer Res 2005, 65, 11034) and found to be 0.37 mM.

Where [7] appears, read: at 5 ppm for 20 nM agent (so in the source).

Molecules are shown by their SMILES. “Also recorded” adds a separate entry of the source.

In the case of `CC1(C)CN([C@H]2C[C@H](O)[C@@H](CO)O2)C(=O)NC1=O` [Compound 2, 5-Methyl-5,6-dihydrothymidine], in data set [1] (setting [7]), the “MTRasym (8.5 Hz)” value is on record as 4%, the “MTRasym (170 Hz)” value was 16% and the “MTRasym (213 Hz)” value is listed as 21%. For the same compound, the “MTRasym (128 Hz)” value in data set [1] (at 5 ppm for 20 mM agent) is 10%. Also, the “increase in phosphorylation with respect to control extract (293^wt), factor relative to that of 1” value in data set [2] is given as “about 10”. For the same compound, the “toxic effect on 293^HSV1-tk cells” value in data set [3] was “did not show any toxic effect; also recorded: no toxic effect”. Further, the “kex of the imino proton” value in data set [4] is 1.7±0.3×10^3 s^−1. Also, the “kex, quantified exchange rates of imino and water protons” value in data set [4] (5 ppm for 1-3, 6 ppm for dT) was 1.7 ± 0.3 ×10^3 s^−1. The “apoptosis (TUNEL staining)” value in data set [5] is given as “did not induce apoptosis; also recorded: do not induce apoptosis”. Also, the “intracellular concentration by 1H-NMR” value in data set [6] is reported as 0.37 mM.
